Marks after values point to notes of the source that are not given here.
Legend:
SGLT2 = molecular target: T1, SGLT2 (Homo sapiens, UniProt P31639); assay: 24-h urine glucose excretion, T2DM subjects; type: in vivo; conditions: mean (SD)
T1 construct: from tissue; host or cells: kidney (proximal tubule) of living human subjects: healthy volunteers and T2DM patients
T1 sequence (P31639 1-672): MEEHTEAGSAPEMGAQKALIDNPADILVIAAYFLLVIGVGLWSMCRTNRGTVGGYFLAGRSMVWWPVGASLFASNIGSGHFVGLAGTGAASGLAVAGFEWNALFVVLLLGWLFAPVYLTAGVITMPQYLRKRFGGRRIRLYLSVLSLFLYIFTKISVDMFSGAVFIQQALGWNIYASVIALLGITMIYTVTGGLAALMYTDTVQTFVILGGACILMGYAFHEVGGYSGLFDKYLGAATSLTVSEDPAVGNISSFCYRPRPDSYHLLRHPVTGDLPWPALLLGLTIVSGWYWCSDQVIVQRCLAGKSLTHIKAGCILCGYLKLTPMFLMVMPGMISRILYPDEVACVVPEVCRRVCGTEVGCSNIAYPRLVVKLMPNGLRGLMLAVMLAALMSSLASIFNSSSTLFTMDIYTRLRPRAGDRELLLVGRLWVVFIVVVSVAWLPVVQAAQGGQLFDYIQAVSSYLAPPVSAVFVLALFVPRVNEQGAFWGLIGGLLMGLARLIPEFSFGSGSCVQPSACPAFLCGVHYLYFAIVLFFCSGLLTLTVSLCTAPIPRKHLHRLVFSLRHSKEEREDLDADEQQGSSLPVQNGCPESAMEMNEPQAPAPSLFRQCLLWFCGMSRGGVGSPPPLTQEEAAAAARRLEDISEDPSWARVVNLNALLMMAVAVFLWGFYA
Method: (§1) Urine samples were collected at pre-dose, and over a series of intervals (0–2, 2–4, 4–6, 6–8, 8–12 and 12–24 h post-dose) for the analysis of creatinine, glucose and electrolytes (Na, K and Cl). All fluid intake was recorded, as well as urine volume, over the 24 hours before and after dosing in each treatment period. Urine was tested for protein on the first morning void of day -1 and 24 h after dosing.
The percentage of filtered glucose excreted in the urine for each individual time period was calculated as the amount of glucose excreted during that time period divided by (CLCR × PG × time interval length), where CLCR is the creatinine clearance for the time interval, PG is the plasma glucose concentration closest to the midpoint of the time interval, and the time interval is the period (min) of urine collection (CLCR × PG represents the glucose filtered load). For the 24-h period, the percentage of filtered glucose excreted was calculated as the amount of glucose excreted over 24 h divided by the sum over the individual time intervals of (CLCR × PG × time interval length).

[1] = 24-h urine electrolyte excretion, T2DM subjects; type: in vivo, human; conditions: mean (SD)
Method: as §1

[2] = Adverse events after single oral doses, T2DM subjects (Part B); type: in vivo, human; conditions: for At least one adverse event: n = 6
Method: This double-blind, randomized, placebo-controlled, single escalating-dose crossover study was conducted in two parts: Part A consisted of a randomized, dose-escalation in healthy subjects; Part B was of similar design, but conducted in subjects with T2DM and included an evaluation of pharmacodynamics using a 50 g oral glucose tolerance test (OGTT).
Six subjects with T2DM received two doses of remogliflozin etabonate and a placebo dose, in a randomized, dose escalating, crossover design, along with an oral glucose load on three study sessions separated by 7–14 days. Full PK and safety profiles were measured on Day 1 of each dosing period. The doses selected for this portion of the study, 50 mg and 500 mg, were based on data obtained in Part A. In each dosing period, subjects were assigned to active vs placebo in a 2:1 ratio.
All subjects were admitted to the unit two nights prior to receiving study drug to establish baseline safety parameters and fluid intake levels over a 36 h period. Subjects remained in the unit for at least 24 h after doses were administered for monitoring of clinical laboratory parameters exploratory biomarkers, vital signs, ECGs and adverse events. While confined to the clinical research unit, all subjects received meals standardized with respect to calories, fat, protein, carbohydrate, and sodium content; however, detailed dietary information was not captured in this study. In Part A, subjects were dosed following an overnight fast; lunch and dinner were provided at 4 and 10 h after dosing, respectively. Fifteen minutes after dosing in each treatment period in Part B, a fasting OGTT was performed using 50 g glucose (administered as 50 g Glucola™). A 50 g glucose load was chosen since the OGTT was being performed in subjects already known to have diabetes. The glucose drink was consumed by subjects within approximately 5 minutes. Blood samples for the measurement of glucose, insulin, and intact glucagon-like peptide 1 (GLP-1) were collected for 24 hours following dose administration. Provided that there were no safety or tolerability concerns, subjects were released from the clinic on day 2 of each treatment period until their return for the next treatment or follow-up period. Each subject was involved in the study for approximately 8 weeks (from screening to follow-up).

[3] = Urine beta-2 microglobulin (exploratory renal toxicity biomarker), T2DM subjects; type: in vivo, human; conditions: one T2DM subject
Method: Urine beta-2 microglobulin levels, an exploratory biomarker that was measured as a potential early indicator of renal toxicity, were within the normal range at both baseline and after treatment for all subjects except for two subjects with diabetes.

[4] = Fluid balance, T2DM subjects; type: in vivo, human; conditions: mean (SD)
Method: as §1

In the case of `CCOC(=O)OC[C@H]1O[C@@H](Oc2nn(C(C)C)c(C)c2Cc2ccc(OC(C)C)cc2)[C@H](O)[C@@H](O)[C@@H]1O` [Remogliflozin etabonate, remogliflozin etabonate], the Urinary glucose excretion (SGLT2; 50 mg single dose) is reported as 384 (210) mmol, the “Filtered glucose excreted in urine” value (SGLT2; 50 mg single dose, n = 5) is reported as 15.9 (5.9)^c % and the “Filtered glucose excreted in urine” value (SGLT2; 500 mg single dose) is reported as 21.6 (9.1) %. For the same compound, the Urinary glucose excretion (SGLT2; 500 mg single dose) was 642 (256) mmol, the Urinary chloride excretion ([1]; 50 mg single dose, n = 5) was 168 (23.9)^c mmol and the Urinary potassium excretion ([1]; 50 mg single dose, n = 5) was 65.8 (4.5)^c mmol. For the same compound, the Urinary sodium excretion ([1]; 50 mg single dose, n = 5) was 173 (35.5)^c mmol, the Urinary chloride excretion ([1]; 500 mg single dose) was 287 (147) mmol and the Urinary potassium excretion ([1]; 500 mg single dose) was 108 (65.8) mmol. The Urinary sodium excretion ([1]; 500 mg single dose) was 301 (128) mmol, the “Muscle cramp (adverse events reported by >1 subject in total)” value ([2]; 50 mg single oral dose) was 1 (17) n (%) and the “Nausea (drug-related adverse events)” value ([2]; 50 mg single oral dose) was 0 n (%). The “Pain in extremity (drug-related adverse events)” value ([2]; 50 mg single oral dose) was 0 n (%), the “β2-microglobulin increased (adverse events reported by >1 subject in total)” value ([2]; 50 mg single oral dose) was 0 n (%) and the “β2-microglobulin increased (drug-related adverse events)” value ([2]; 50 mg single oral dose) was 0 n (%). For the same compound, the “At least one adverse event” value ([2]; 50 mg single oral dose) was 1 (17) n (%), the “Muscle cramp (adverse events reported by >1 subject in total)” value ([2]; 500 mg single oral dose) was 0 n (%) and the “Nausea (drug-related adverse events)” value ([2]; 500 mg single oral dose) was 1 (17) n (%). For the same compound, the “Pain in extremity (drug-related adverse events)” value ([2]; 500 mg single oral dose) was 1 (17) n (%), the “β2-microglobulin increased (adverse events reported by >1 subject in total)” value ([2]; 500 mg single oral dose) was 2 (33) n (%) and the “β2-microglobulin increased (drug-related adverse events)” value ([2]; 500 mg single oral dose) was 1 (17) n (%). For the same compound, the “At least one adverse event” value ([2]; 500 mg single oral dose) was 2 (33) n (%), the “Time for drug-related beta-2 microglobulin elevation to return to normal” value ([3]; 500 mg) was ≤ 4 days and the “Urine beta-2 microglobulin, elevation” value ([3]; 11 days after 500 mg, attributed by investigator to other concomitant disease) was 2.5 µg/mL. The “Urine beta-2 microglobulin, drug-related elevation” value ([3]; day 1 after 500 mg, normal <0.3 μg/mL) was 1.62 µg/mL, the “Fluid balance (total fluid intake minus total urine volume)” value ([4]; 0–12 h post-dose, 50 mg) was -78(433) mL and the “Fluid balance (total fluid intake minus total urine volume)” value ([4]; 0–12 h post-dose, 500 mg) was -29 (749) mL. The “Fluid balance (total fluid intake minus total urine volume)” value ([4]; 12–24 h post-dose, 50 mg) was -803 (658) mL, the “Fluid balance (total fluid intake minus total urine volume)” value ([4]; 12–24 h post-dose, 500 mg) was -1088(679) mL and the “Fluid balance (total fluid intake minus total urine volume)” value ([4]; -24 h to pre-dose (baseline before dosing), 50 mg period) was -504 (294) mL. For the same compound, the “Fluid balance (total fluid intake minus total urine volume)” value ([4]; -24 h to pre-dose (baseline before dosing), 500 mg period) was 188 (1879) mL and the “Fluid balance (total fluid intake minus total urine volume)” value ([4]; -24 h to pre-dose (baseline before dosing), 500 mg period, listed as remogliflozin etabonate) was “+188 mL”.

Source: PMC3700763, “First human dose-escalation study with remogliflozin etabonate, a selective inhibitor of the sodium-glucose transporter 2 (SGLT2), in healthy subjects and in subjects with type 2 diabetes mellitus” (BMC Pharmacology & Toxicology, 2013)
